Counter-ions that a name gives are not always drawn.
Each compound was assayed on rat embryo ventral mesencephalic cells (assay: Neuroprotection assay (NMDA neuroexcitotoxic injury, high affinity 3H-dopamine uptake)). Details: embryonic day 15 rat VM cell culture, NMDA (100-400 μM) for 20 hours.
Format: cell-based, Sprague-Dawley rat
From the text: The neuroprotective activity of the compounds of this invention may be assayed using rat embryo ventral mesencephalic cells in culture which are subsequently exposed to the glutamate receptor agonist NMDA. This assay is described in detail in the example section.
The ventral mesencephalic region was dissected out of embryonic day 15 Sprague-Dawley rat embryos (Harlan), dissociated into single cell suspension by a combination of trypsinization and trituration (Costantini et al., Neurobiol Dis., pp. 97-106 (1998). Dissociated VM cells were plated into poly-L-ornithine-coated 96-well plates at a density of 85,000 cells/well in 100 uL of DMEM supplemented with 18% heat-inactivated horse serum, 0.24% glucose, 2 mM glutamine and 50 u/ml penicillin/streptomycin and incubated in a 5% CO2 incubator. After one day in culture (DIV1), the medium was replaced with 100 μL of a defined medium (DMEM supplemented with 1× N2 cocktail (Gibco-BRL), 0.12% glucose, 2 mM glutamine, and 50 units/ml penicillin/streptomycin) containing DMSO or various concentrations of the compounds of this invention. On DIV5, neuroexcitotoxic injury was induced by the addition of various concentrations of the glutamate receptor agonist NMDA (100-400 μM). Cultures were incubated with the neurotoxin for 20 hours and the effects of neurophilin compounds were assessed using high affinity ^3H-dopamine uptake according to a procedure published by Park and Mytilineou [Brain Res., 599, pp. 83-97 (1992)].

First: CCN1CCCC[C@H]1C(=O)N1C[C@@H]2C[C@H]1CN2Cc1ccccc1 (stereo in doubt) [Compound 24, 1-(5-benzyl-2,5-diaza-bicyclo[2.2.1]-hept-2-yl)-1-((S)-1-ethyl-piperidino-2-yl)-methanone]
Second: CCN1CCCC[C@H]1C(=O)N1C[C@@H]2C[C@H]1CN2C(c1ccccc1)c1ccccc1 [Compound 17, 1-[(1S, 4S)-5-(1,1-Diphenylmethyl)-5-diazabicyclo[2.2.1]-hept-2-yl]-1-((S)-1-ethylpiperidin-2-yl)methanone]
The EC50 of the first is higher: over 500 nM for the first, 100 to 500 nM for the second.

First: CCN1CCCC[C@H]1C(=O)N1CCN(c2ccccn2)CC1 [Compound 2]
Second: CCN1CCCC[C@H]1C(=O)N1CCN(c2ccccc2)CC1 [Compound 39, ((2S)-1-Ethylpiperidin-2-yl)-(4-phenylpiperazin-1-yl)-methanone dihydrochloride]
The EC50 of the first is higher: over 500 nM for the first, under 100 nM for the second.

`CN1CCC=C(C(=O)N2CCN(C(c3ccccc3)c3ccccc3)CC2)C1` [Compound 4] and `CN1CCC[C@H]1C(=O)N1CCN(C(c2ccccc2)c2ccccc2)CC1` [Compound 8] cannot be ordered by EC50: over 500 nM for the first, over 500 nM for the second.

First: O=C([C@@H]1CCCN1Cc1ccccc1)N1CCN(C(c2ccccc2)c2ccccc2)CC1 [Compound 7]
Second: O=C([C@@H]1CCCN1Cc1ccccc1)N1CCN(C(c2ccc(F)cc2)c2ccc(F)cc2)CC1 [Compound 51, ((2S)-1-Benzylpyrrolidin-2-yl)-{4-bis-(4-fluorophenyl)methyl]-piperazin-1-yl}-methanone dihydrochloride]
The EC50 of the first is lower: under 100 nM for the first, over 500 nM for the second.

First: CN1CCC(C(=O)N2CCN(C(c3ccccc3)c3ccccc3)CC2)CC1 [Compound 11]
Second: CCN1CCCC[C@H]1C(=O)N1CCN(C(c2ccccc2)c2ccc(F)cc2)CC1 (stereo partly drawn) [Compound 42, ((2S)-1-Ethylpiperidin-2-yl)-{4-[(4-fluorophenyl)phenylmethy]-piperazin-1-yl}-methanone dihydrochloride]
The EC50 of the first is higher: over 500 nM for the first, under 100 nM for the second. The second is the more potent here.

`O=C1C[C@@H](C(=O)N2CCC(Cc3ccccc3)CC2)N(Cc2ccccc2)C1` [Compound 29, (2S)-1-Benzyl-5-(4-benzylpiperidine-1-carbonyl)-pyrrolidin-3-one] and `CON=C1C[C@@H](C(=O)N2CCC(Cc3ccccc3)CC2)N(Cc2ccccc2)C1` [Compound 31, (2S)-1-Benzyl-5-(4-benzylpiperidine-1-carbonyl)-pyrrolidin-3-one O-methyl-oxime] fall in the same range of EC50: 100 to 500 nM for the first, 100 to 500 nM for the second.

`C=CCN1CCCC[C@H]1C(=O)N1CCN(C(c2ccc(F)cc2)c2ccc(F)cc2)CC1` [Compound 64, ((2S)-1-Allylpiperidin-2-yl)-{4-[bis-(4-fluorophenyl)methyl]-piperazin-1-yl}-methanone] and `CCN1CSC[C@H]1C(=O)N1CCN(C(c2ccc(F)cc2)c2ccc(F)cc2)CC1` [Compound 211] cannot be ordered by EC50: over 500 nM for the first, over 500 nM for the second.

First: CCN1CCCC[C@H]1C(=O)N1CCN(CCCc2ccccc2)CC1 [Compound 70, ((2S)-1-Ethylpiperidin-2-yl)-[4-(3-phenylpropyl)-piperazin-1-yl]-methanone dihydrochloride]
Second: CCN1CCCC[C@H]1C(=O)N1CCN(Cc2ccc(Cl)cc2)CC1 [Compound 72, [4-(4-Chlorobenzyl)-piperazin-1-yl]-((2S)-1-ethylpiperidin-2-yl)-methanone dihydrochloride]
The EC50 of the first is lower: 100 to 500 nM for the first, over 500 nM for the second. The first is the more potent here.

First: CCN1CCCC[C@H]1C(=O)N1CCN(Cc2cccs2)CC1 [Compound 73, ((2S)-1-Ethylpiperidin-2-yl)-(4-thiophen-2-ylmethylpiperazin-1-yl)-methanone dihydrochloride]
Second: CCN1CC[C@H]1C(=O)N1CCC(Cc2ccccc2)CC1 [Compound 232]
The EC50 of the first is higher: over 500 nM for the first, 100 to 500 nM for the second. The second is the more potent here.

`CCN1CCCC[C@H]1CN1CCN(C(c2ccc(F)cc2)c2ccc(F)cc2)CC1` [Compound 102, 1-[Bis-(4-fluorophenyl)methyl)-4-((2S)-1-ethylpiperidin-2-ylmethyl)-piperazine.] and `CCN1CC[C@H](C)[C@H]1C(=O)N1CCN(C(c2ccc(F)cc2)c2ccc(F)cc2)CC1` [Compound 205] cannot be ordered by EC50: under 100 nM for the first, under 100 nM for the second.

First: CN1CSC(C)(C)[C@H]1C(=O)N1CCC(Cc2ccccc2)CC1 [Compound 200]
Second: CN1CSC(C)(C)[C@@H]1C(=O)N1CCC(Cc2ccccc2)CC1 [Compound 228]
The EC50 of the first is lower: 100 to 500 nM for the first, over 500 nM for the second.

`CCN1CC=C[C@H]1C(=O)N1CCN(C(c2ccc(F)cc2)c2ccc(F)cc2)CC1` [Compound 201] and `O=C([C@@H]1C=CCN1Cc1ccccc1)N1CCN(C(c2ccc(F)cc2)c2ccc(F)cc2)CC1` [Compound 237] cannot be ordered by EC50: over 500 nM for the first, over 500 nM for the second.

First: CCN1C[C@H]2C[C@@H]2C1C(=O)N1CCN(C(c2ccc(F)cc2)c2ccc(F)cc2)CC1 (some centres unmarked) [Compound 203]
Second: O=C(C1[C@H]2C[C@@H]2CN1Cc1ccccc1)N1CCN(C(c2ccc(F)cc2)c2ccc(F)cc2)CC1 (some centres unmarked) [Compound 239]
The EC50 of the first is lower: 100 to 500 nM for the first, over 500 nM for the second.

`CN1[C@@H](C(=O)N2CCC(Cc3ccccc3)CC2)CC[C@H]1c1ccccc1` [Compound 206] and `CCN1[C@@H](C(=O)N2CCC(Cc3ccccc3)CC2)CC[C@H]1c1ccccc1` [Compound 246] cannot be ordered by EC50: under 100 nM for the first, under 100 nM for the second.

First: CCN1C(C)CC[C@H]1C(=O)N1CCN(C(c2ccc(F)cc2)c2ccc(F)cc2)CC1 (some centres unmarked) [Compound 207]
Second: CC1CC[C@@H](C(=O)N2CCN(C(c3ccc(F)cc3)c3ccc(F)cc3)CC2)N1Cc1ccccc1 (some centres unmarked) [Compound 243]
The EC50 of the first is lower: 100 to 500 nM for the first, over 500 nM for the second.

`CCN1CCC[C@]1(C)C(=O)N1CCN(C(c2ccc(F)cc2)c2ccc(F)cc2)CC1` [Compound 209] and `C[C@@]1(C(=O)N2CCN(C(c3ccc(F)cc3)c3ccc(F)cc3)CC2)CCCN1Cc1ccccc1` [Compound 245] fall in the same range of EC50: 100 to 500 nM for the first, 100 to 500 nM for the second.

First: CCN1[C@@H](C(=O)N2CCN(C(c3ccc(F)cc3)c3ccc(F)cc3)CC2)CC[C@H]1c1ccccc1 [Compound 213]
Second: CCN1[C@@H](c2ccccc2)CC[C@H]1C(=O)N1CCN(C(c2ccc(F)cc2)c2ccc(F)cc2)CC1 [Compound 225]
The EC50 of the first is higher: over 500 nM for the first, under 100 nM for the second. The second is the more potent here.

`CCN1C[C@H](c2ccccc2)C[C@H]1C(=O)N1CCN(C(c2ccc(F)cc2)c2ccc(F)cc2)CC1` [Compound 215] and `CN1C[C@H](c2ccccc2)C[C@H]1C(=O)N1CCN(C(c2ccc(F)cc2)c2ccc(F)cc2)CC1` [Compound 224] cannot be ordered by EC50: over 500 nM for the first, over 500 nM for the second.

`CN1CSC(C)(C)[C@H]1C(=O)N1CCN(C(c2ccc(F)cc2)c2ccc(F)cc2)CC1` [Compound 216] and `CN1CSC(C)(C)[C@@H]1C(=O)N1CCN(C(c2ccc(F)cc2)c2ccc(F)cc2)CC1` [Compound 230] cannot be ordered by EC50: over 500 nM for the first, over 500 nM for the second.

`CCN1CC[C@@H](c2ccccc2)[C@H]1C(=O)N1CCN(C(c2ccc(F)cc2)c2ccc(F)cc2)CC1` [Compound 217] and `C[C@H]1CCN(Cc2ccccc2)[C@@H]1C(=O)N1CCN(C(c2ccc(F)cc2)c2ccc(F)cc2)CC1` [Compound 241] cannot be ordered by EC50: over 500 nM for the first, over 500 nM for the second.

Compared with `O=C([C@@H]1C=CCN1Cc1ccccc1)N1CCC(Cc2ccccc2)CC1` [Compound 219], `C[C@H]1CCN(Cc2ccccc2)[C@@H]1C(=O)N1CCC(Cc2ccccc2)CC1` [Compound 223] is lower in EC50: 100 to 500 nM for the first, under 100 nM for the second.

First: O=C(C1[C@H]2C[C@@H]2CN1Cc1ccccc1)N1CCC(Cc2ccccc2)CC1 (some centres unmarked) [Compound 221]
Second: CCN1C[C@H]2C[C@@H]2C1C(=O)N1CCC(Cc2ccccc2)CC1 (some centres unmarked) [Compound 236]
The EC50 of the first is lower: under 100 nM for the first, 100 to 500 nM for the second.

`CN1[C@@H](C(=O)N2CCN(C(c3ccc(F)cc3)c3ccc(F)cc3)CC2)CC[C@H]1c1ccccc1` [Compound 222] and `O=C([C@H]1CC[C@@H](c2ccccc2)N1Cc1ccccc1)N1CCN(C(c2ccc(F)cc2)c2ccc(F)cc2)CC1` [Compound 247] cannot be ordered by EC50: over 500 nM for the first, over 500 nM for the second.

`CC1CC[C@@H](C(=O)N2CCC(Cc3ccccc3)CC2)N1Cc1ccccc1` (some centres unmarked) [Compound 227] and `CCN1[C@@H](c2ccccc2)CC[C@H]1C(=O)N1CCC(Cc2ccccc2)CC1` [Compound 248] fall in the same range of EC50: 100 to 500 nM for the first, 100 to 500 nM for the second.

First: C[C@@]1(C(=O)N2CCC(Cc3ccccc3)CC2)CCCN1Cc1ccccc1 [Compound 229]
Second: CCN1CCC[C@]1(C)C(=O)N1CCC(Cc2ccccc2)CC1 [Compound 242]
The EC50 of the first is higher: over 500 nM for the first, under 100 nM for the second. The second is the more potent here.

`O=C([C@H]1CC[C@@H](c2ccccc2)N1Cc1ccccc1)N1CCC(Cc2ccccc2)CC1` [Compound 231] and `O=C([C@@H]1CC[C@H](c2ccccc2)N1Cc1ccccc1)N1CCC(Cc2ccccc2)CC1` [Compound 233] fall in the same range of EC50: 100 to 500 nM for the first, 100 to 500 nM for the second.

`CCN1CC=C[C@H]1C(=O)N1CCC(Cc2ccccc2)CC1` [Compound 234] and `CCN1CSC[C@H]1C(=O)N1CCC(Cc2ccccc2)CC1` [Compound 244] cannot be ordered by EC50: over 500 nM for the first, over 500 nM for the second.

`O=C([C@@H]1[C@H](c2ccccc2)CCN1Cc1ccccc1)N1CCC(Cc2ccccc2)CC1` [Compound 235] and `CCN1CC(c2ccccc2)C[C@H]1C(=O)N1CCC(Cc2ccccc2)CC1` (some centres unmarked) [Compound 250] cannot be ordered by EC50: over 500 nM for the first, over 500 nM for the second.

`CCN1CC[C@H](C)[C@H]1C(=O)N1CCC(Cc2ccccc2)CC1` [Compound 238] and `CCN1C(C)CC[C@H]1C(=O)N1CCC(Cc2ccccc2)CC1` (some centres unmarked) [Compound 240] cannot be ordered by EC50: under 100 nM for the first, under 100 nM for the second.

For `O=C([C@@H]1CC[C@H](c2ccccc2)N1Cc1ccccc1)N1CCN(C(c2ccc(F)cc2)c2ccc(F)cc2)CC1` [Compound 249], the EC50 was over 500 nM.

Reference: patent publication US20040034019A1, “Piperazine and piperidine derivatives” (priority 2002, published 2004)
